The values below come from PubChem BioAssay AID850 (SRMLSC, 2007).

A short description of assay [1]: concentration-response yeast growth inhibition under permissive conditions, counter-assay for yeast lifespan-shortening chemical project (AID 850).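 Note: growth read as optical density after one day of incubation.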 The note with it: Saccharomyces cerevisiae growth inhibition, permissive control, measured here: maximum growth inhibition, stronger effect = higher value.
Assay [2] relates to Saccharomyces cerevisiae growth inhibition, permissive control. Described as above.

SMILES strings stand for the structures. Activity calls are given as the source filed them. The rule behind the calls is not given here.

Consider `Cc1[nH]n(-c2ccccc2)c(=O)c1/C=N/Nc1nncc(-c2ccccc2)n1`, for which the inhibition (commonly the percentage by which the read-out fell short of the control) in assay [1] (at 50 µM) stood at 98.7%. In assay [2], the 50% inhibitory concentration (IC50) (in general, the concentration needed to halve the response being measured) is 20.7 µM.

In assay [1] (at 0.781 µM), `O=C1CC(N2CCN(c3nc4ccccc4s3)CC2)C(=O)N1Cc1cccs1` (stereo not drawn) returned an inhibition of 28.5%. The IC50 in assay [2] is > 100 µM (inactive).

`O=c1cnn([C@@H]2O[C@H](CO)[C@@H](O)[C@H]2O)c(=O)[nH]1` returned an inhibition in assay [1] (at 50 µM) of 68.7%. Moreover, in assay [2], the IC50 was 16.6 µM.

With `Cc1ccc(N/N=C/c2c(O)cc(C)oc2=O)cc1`, the inhibition in assay [1] (at 50 µM) was 99.4%. Moreover, the half-inhibitory concentration (IC50) in assay [2] was 11.8 µM.

`CCc1oc2ccccc2c1C(=O)c1cc(Br)c(O)c(Br)c1` came in with an inhibition in assay [1] (at 50 µM) of 87.7%. Besides, the IC50 in assay [2] was 36.1 µM.

For `N/C(Cc1ccc(Cl)cc1Cl)=N\OC(=O)c1cccs1`, the inhibition in assay [1] (at 12.5 µM) amounted to 100%. Further, the half-inhibitory concentration (IC50) in assay [2] is 0.925 µM.

`CC(N=Cc1cccc(O)c1O)c1ccccc1` (stereo not drawn) displayed an inhibition in assay [1] (at 50 µM) of 98%. In assay [2], the half-inhibitory concentration (IC50) was 9.56 µM.

Consider `Oc1ccc(/C=N/N=C(c2ccccc2)c2ccccc2)c(O)c1O`, for which, in assay [1] (at 50 µM), the inhibition was determined as 79.8%. Further, in assay [2], the half-maximal inhibitory concentration (IC50) is 30.1 µM.

In the case of `c1ccc(N(c2ccccc2)c2nc(-n3ccnc3)nc(-n3ccnc3)n2)cc1`, the inhibition in assay [1] (at 50 µM) worked out at 62.1%. Besides, the IC50 in assay [2] was 37.6 µM.

For `COc1ccc(N)c2c1C(=O)c1ccccc1C2=O`, the inhibition in assay [1] (at 25 µM) is 22.5%. Further, in assay [2], the IC50 was > 100 µM (inactive).

Compound `CCCCCCCCCCCCCCCC[n+]1ccc(/C=N/O)cc1` displayed an inhibition in assay [1] (at 50 µM) of 100%. For the same compound, the IC50 in assay [2] was 1.07 µM.

In assay [1] (at 50 µM), `CCN(CC)N=Nc1[nH]nc2nc(C)cc(C)c12` registered an inhibition of 55.1%. The IC50 in assay [2] was 48.6 µM.

Regarding `Cc1cc(=O)[nH]c(SCc2nc3ccccc3s2)n1`, the inhibition in assay [1] (at 25 µM) stood at 13%. Besides, in assay [2], the IC50 was > 100 µM (inactive).

In turn, `O=C(OCn1ncc(Br)c(Br)c1=O)c1ccccc1Cl` came in with an inhibition in assay [1] (at 0.781 µM) of 10.5%. Further, in assay [2], the IC50 was > 100 µM (inactive).

`CCCn1c(C(C)NC(C)=O)nc2ccccc21` (stereo not drawn) had an inhibition in assay [1] (at 12.5 µM) of 9.66%. Besides, the IC50 in assay [2] was > 100 µM (inactive).

On to `CC1/C(=N/O)CC(c2ccccc2)N(C)C1c1ccccc1` (stereo not drawn), for which the inhibition in assay [1] (at 25 µM) came out at 94.8%. For the same compound, in assay [2], the IC50 was less than 0.098 µM.

In assay [1] (at 12.5 µM), `COc1cccc(C(=O)O/N=C(\N)Cc2ccc(Cl)cc2)c1` displayed an inhibition of 97.5%. Besides, the half-maximal inhibitory concentration (IC50) in assay [2] was 6.32 µM.

The compound `CC1(CCc2ccccc2)NC(=S)N(c2ccccc2)N1` (stereo not drawn) came in with an inhibition in assay [1] (at 50 µM) of 99.8%. The half-inhibitory concentration (IC50) in assay [2] is 9.11 µM.

In turn, `COC1=C(c2ccccc2)C(=O)c2ccccc2C1=O` had an inhibition in assay [1] (at 50 µM) of 96.4%. Also, the IC50 in assay [2] was 19.8 µM.

`Cc1cc(C)nc(/N=c2/ssnc2Cl)c1` gave an inhibition in assay [1] (at 6.25 µM) of 29.2%. The IC50 in assay [2] is > 100 µM (inactive).

In turn, `Cc1cccc(CSc2cccc3cccnc23)c1` displayed an inhibition in assay [1] (at 50 µM) of 99.4%. Besides, the IC50 in assay [2] is 13.8 µM.

Compound `Cc1ccc(CNC(=O)c2ccc(Cn3nc(C)c(Cl)c3C)o2)cc1` yielded an inhibition in assay [1] (at 50 µM) of 99.8%. Further, the IC50 in assay [2] is 17.2 µM.

Regarding `COc1ccc(/C(C)=N/NC(=O)c2ccc(CSc3cccc4cccnc34)cc2)cc1OC`, the inhibition in assay [1] (at 6.25 µM) is 12.5%. Besides, in assay [2], the IC50 is > 100 µM (inactive).

In assay [1] (at 0.781 µM), `Cc1cc([N+](=O)[O-])ccc1-c1ccc(C2Nc3ccccc3C(=O)N2O)o1` (stereo not drawn) showed an inhibition of 3.97%. Besides, the IC50 in assay [2] was > 100 µM (inactive).

`COc1ccc(/C=C/C(=O)c2cc(Br)ccc(=O)c2O)cc1` came in with an inhibition in assay [1] (at 50 µM) of 93.6%. The IC50 in assay [2] was 16.1 µM.

As for `Cc1ccc(CNC(=O)CS(=O)Cc2nc(-c3cccs3)oc2C)cc1` (stereo not drawn), the inhibition in assay [1] (at 0.391 µM) worked out at 13.8%. Also, the IC50 in assay [2] was > 100 µM (inactive).

In the case of `O=[N+]([O-])c1ccc(O)c(/C=N/Nc2ccccn2)c1`, the inhibition in assay [1] (at 0.781 µM) amounted to 16.1%. For the same compound, in assay [2], the IC50 was > 100 µM (inactive).

In turn, `O=C(Nc1cccc(N=Cc2cc(Br)cc(Br)c2O)c1)c1ccco1` registered an inhibition in assay [1] (at 50 µM) of 100%. Moreover, the IC50 in assay [2] was 11.1 µM.

Compound `Fc1ccc(Br)cc1C1C=C(c2cccnc2)Nc2ncnn21` (stereo not drawn) displayed an inhibition in assay [1] (at 50 µM) of 26.3%. Besides, in assay [2], the IC50 is > 100 µM (inactive).
